This is an account of results in patent publication US11446260B2, “Pharmaceutical composition of S-ketamine hydrochloride” (Janssen Pharmaceutica NV, priority 2013, dated 2022).

Common to all, as to type: cell-based
The subject of experiment [1] is M. luteus. Briefly: Full AET Challenge Test. The settings on record: Micrococcus Luteus; summary of Examples 1 and 2.
Experiment [2] concerns C. albicans. Briefly: Full AET Challenge Test. As to conditions: Candida albicans; summary of Examples 1 and 2.
Experiment [3] has as its system E. coli. Briefly: Full AET Challenge Test. As to conditions: Escherichia coli; summary of Examples 1 and 2.
In experiment [4] the test system is S. aureus. Briefly: Full AET Challenge Test. As to conditions: Staphylococcus aureus; summary of Examples 1 and 2.
The subject of experiment [5] is A. brasiliensis. Briefly: Full AET Challenge Test. As to conditions: Aspergillus brasiliensis; summary of Examples 1 and 2.
For experiment [6], the system named is S. haemolyticus. Briefly: Challenge test (Example 1). As to conditions: Staphylococcus haemolyticus; summary of Examples 1 and 2.
Experiment [7] relates to P. aeruginosa. Briefly: Full AET Challenge Test. As to conditions: Pseudomonas aeruginosa; summary of Examples 1 and 2.

As for `CN[C@]1(c2ccccc2Cl)CCCCC1=O.Cl` [S-ketamine hydrochloride, (S)-2-(2-chlorophenyl)-2-(methylamino)cyclohexanone hydrochloride], the “antimicrobial properties (summary in words)” value in experiment [1] is recorded as “strong antimicrobial properties”; in experiment [2], “strong antimicrobial properties”; in experiment [3], “strong antimicrobial properties”; in experiment [4], “strong antimicrobial properties”; in experiment [5] it was “some inhibitory activity”; in experiment [6] it was “strong antimicrobial properties”. The “antimicrobial properties (summary in words)” value in experiment [7] was “strong antimicrobial properties”.
